Results from patent US5733924A, “DC 107 derivatives and treatment methods” (Kyowa Hakko Kogyo Co., Ltd., priority 1995, dated 1998).
In brackets after ≈: the same amount, converted by molar mass.

Assays:
[1] = test system: Staphylococcus aureus ATCC 6538P; test: Antibacterial activity, agar dilution method (MIC); type: cell-based; conditions: ATCC6538P; SA: Staphylococcus aureus ATCC 6538P; agar dilution, pH 7; read-out: MIC (minimum growth inhibitory concentration)
Excerpt: (§1) The antibacterial activity as determined by the agar dilution method using a medium prepared by dissolving 3 g of Bacto-Tryptone (a product of Difco Laboratories), 3 g of a meat extract, 1 g of an yeast extract, 1 g of glucose and 16 g of agar in one liter of water (pH 7).
SA: Staphylococcus aureus ATCC 6538P

P388 Leukemia = test: Antitumor activity against P388 leukemia in mice (increased life span); type: in vivo, CDF1 mice; conditions: Mus musculus, P388, ip, 720 h, single i.p. 24 hours after transplantation, CDF1 mice, 30 days observation
How it was run: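 CDF1 mice (20–25 g) received 1×10^6 P388 cells intraperitoneally, taken from DBA/2 ascites on day 7 after transplantation. Activity expressed as ILS%, the ratio of mean survival days in treated versus untreated control mice.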

[2] = test system: Klebsiella pneumoniae ATCC 10031; test: Antibacterial activity, agar dilution method (MIC); type: cell-based; conditions: ATCC10031; KP: Klebsiella pneumoniae ATCC 10031; agar dilution, pH 7; read-out: MIC (minimum growth inhibitory concentration)
Excerpt: as §1
KP: Klebsiella pneumoniae ATCC 10031

[3] = test system: Bacillus subtilis No. 10707; test: Antibacterial activity, agar dilution method (MIC); type: cell-based; conditions: BS: Bacillus subtilis No. 10707, pH 7, read-out: MIC (minimum growth inhibitory concentration)
Excerpt: as §1
BS: Bacillus subtilis No. 10707

Escherichia coli ATCC 26 = test: Antibacterial activity, agar dilution method (MIC); type: cell-based; conditions: ATCC26, EC: Escherichia coli ATCC 26, pH 7, read-out: MIC (minimum growth inhibitory concentration)
Excerpt: as §1
EC: Escherichia coli ATCC 26

[4] = test system: Enterococcus faecium ATCC 10541; test: Antibacterial activity, agar dilution method (MIC); type: cell-based; conditions: ATCC10541, EF: Enterococcus faecium ATCC 10541, pH 7, read-out: MIC (minimum growth inhibitory concentration)
Excerpt: as §1
EF: Enterococcus faecium ATCC 10541

[5] = Japanese Published Unexamined Patent Application No. 112988/89; cited from earlier work
various bacteria = conditions: Japanese Published Unexamined Patent Application No. 112988/89; cited from earlier work
[6] = read-out: ILS (increased life span)

SMILES: CCOCOC1/C=C(\C)CCC2(C(C)(O)C(=O)SCc3oc(=O)oc3C)CC(=O)N(C(C)c3nc(cs3)/C=C\C=C\C1=O)[S+]2[O-] (centres unmarked) [Compound 59]
- MIC [1]: 1.3 µg/mL (≈ 1.91 µM)
- ILS at 2 mg/kg (P388 Leukemia; [6]): 47%
- MIC [2]: 5.2 µg/mL (≈ 7.64 µM)
- MIC [3]: 0.65 µg/mL (≈ 0.955 µM)
- MIC (Escherichia coli ATCC 26): 21 µg/mL (≈ 30.8 µM)
- MIC [4]: 1.3 µg/mL (≈ 1.91 µM)

SMILES: C/C1=C\C(OC(=O)CNC(=O)CNC(=O)OCc2ccccc2)C(=O)/C=C/C=C\c2csc(n2)C(C)NC(=O)CC2(CC1)[S+]([O-])SC(=O)C2(C)O (centres unmarked) [Compound 108]
- MIC [1]: 0.16 µg/mL (≈ 0.211 µM)
- ILS at 4 mg/kg (P388 Leukemia; 4.0 mg/kg, read-out: ILS (increased life span)): 72%
- MIC [2]: 0.33 µg/mL (≈ 0.435 µM)
- MIC [3]: 0.041 µg/mL (≈ 0.054 µM)
- MIC (Escherichia coli ATCC 26): 21 µg/mL (≈ 27.7 µM)
- MIC [4]: 0.081 µg/mL (≈ 0.107 µM)

SMILES: COC1(OC2C=C(C)CCC3(C(C)(O)C(=O)SCc4oc(=O)oc4C)CC(=O)N(C(C)c4nc(cs4)C=CC=CC2=O)[S+]3[O-])CCOCC1 (centres unmarked) [Compound 122]
- MIC [1]: 0.65 µg/mL (≈ 0.882 µM)
- ILS at 2 mg/kg (P388 Leukemia; [6]): 52%
- MIC [2]: 2.6 µg/mL (≈ 3.53 µM)
- MIC [3]: 0.16 µg/mL (≈ 0.217 µM)
- MIC (Escherichia coli ATCC 26): 42 µg/mL (≈ 57 µM)
- MIC [4]: 1.3 µg/mL (≈ 1.76 µM)

SMILES: C/C1=C\C(O)C(=O)/C=C/C=C\c2csc(n2)C(C)NC(=O)CC2(CC1)[S+]([O-])SC(=O)C2(C)O (centres unmarked) [DC107]
- antitumor activity [5]: also an antitumor activity
- antibacterial activity (various bacteria): exhibits an antibacterial activity against various bacteria

SMILES: CC1=CC(OC(=O)CNC(=O)CCNC(=O)OC(C)(C)C)C(=O)C=CC=Cc2csc(n2)C(C)N2C(=O)CC(C(C)(O)C(=O)SCc3oc(=O)oc3C)(CC1)[S+]2[O-] (centres unmarked) [Compound 170]
- MIC [1]: 2.3 µg/mL (≈ 2.7 µM)
- ILS at 8 mg/kg (P388 Leukemia; 8.0 mg/kg, read-out: ILS (increased life span)): 70%
- MIC [2]: 2.3 µg/mL (≈ 2.7 µM)
- MIC [3]: 2.3 µg/mL (≈ 2.7 µM)
- MIC (Escherichia coli ATCC 26): 75 µg/mL (≈ 88.1 µM)
- MIC [4]: 2.3 µg/mL (≈ 2.7 µM)

SMILES: C/C1=C\C(OC(=O)CN(C)C(=O)CCNC(=O)OCc2ccccc2)C(=O)/C=C/C=C\c2csc(n2)C(C)NC(=O)CC2(CC1)[S+]([O-])SC(=O)C2(C)O (centres unmarked) [Compound 117]
- MIC [1]: 0.13 µg/mL (≈ 0.165 µM)
- ILS at 16 mg/kg (P388 Leukemia; 16 mg/kg): 73%
- MIC [2]: 0.057 µg/mL (≈ 0.0724 µM)
- MIC [3]: 0.13 µg/mL (≈ 0.165 µM)
- MIC (Escherichia coli ATCC 26): 0.46 µg/mL (≈ 0.585 µM)
- MIC [4]: 0.23 µg/mL (≈ 0.292 µM)
